In ChEMBL document CHEMBL5625215, “Antiproliferative activity of meso-substituted BODIPY photocages: Effect of electrophiles vs singlet oxygen” (Eur J Med Chem, 2023):
One block for each compound: values may come before it. Active and inactive are the calls of the source. No cut-off for these calls is given here.

Assays:
HCT-116 [1] = test: Antiproliferative activity against human HCT-116 cells assessed as inhibition of cell growth incubated for 72 hrs under photoirradiation with 6 cool white lamps for 15 mins at 4,28 and 52 hrs after compound addition by MTT assay; format: functional, cell-based; details: HCT-116, light or radiation study
HEK-293T [2] = test: Induction of apoptosis in HEK293T cells assessed as cell death irradiated with visible light by Hoechst 33342 staining based confocal microscopic analysis; format: toxicity; details: human
NCI-H460 [3] = test: Induction of cell death in human NCI-H460 cells assessed as shrinkage of nuclear volume at 1 uM preincubated for 30 mins followed by light irradiation for 15 to 30 mins by Hoechst 33342 staining based confocal microscopic analysis; format: functional; details: time 45-60 min
[4] = Fluorescence property of compound in CH3CN assessed as fluorescence quantum yield by spectrofluorometric analysis; format: physicochemical
[5] = Drug localization in golgi body of human NCI-H460 cells at 10 uM incubated for 30 mins by Hoechst 33342 staining based confocal microscopic analysis; format: ADME, subcellular; details: nci-h460, 0.5 h
[6] = Cytotoxicity against human HaCaT cells assessed as inhibition of cell growth incubated for 72 hrs under photoirradiation with 6 cool white lamps for 15 mins at 4,28 and 52 hrs after compound addition by MTT assay; format: toxicity, cell-based
[7] = Drug localization in cytoplasm of human NCI-H460 cells at 10 uM incubated for 30 mins by Hoechst 33342 staining based confocal microscopic analysis; format: ADME, subcellular; details: nci-h460, 0.5 h
[8] = Drug uptake in HEK293T cells by fluorescence microscopic analysis; format: ADME, cell-based; details: human, hek-293t
[9] = Cytotoxicity against human HaCaT cells assessed as inhibition of cell growth incubated for 72 hrs under dark condition by MTT assay; format: toxicity, cell-based
NCI-H460 [10] = test: Induction of cell death in human NCI-H460 cells assessed as dye bleaching at 1 uM preincubated for 30 mins followed by light irradiation for 15 to 30 mins by Hoechst 33342 staining based confocal microscopic analysis; format: functional; details: time 45-60 min
[11] = Absorption property of compound in CH3CN assessed as maximal wavelength by UV-vis spectrophotometer; format: physicochemical
[12] = Cytotoxicity against HEK293T cells assessed as inhibition of cell growth incubated for 72 hrs under dark condition by MTT assay; format: toxicity, cell-based, HEK-293T; details: human
MCF7 [13] = test: Antiproliferative activity against human MCF7 cells assessed as inhibition of cell growth incubated for 72 hrs under photoirradiation with 6 cool white lamps for 15 mins at 4,28 and 52 hrs after compound addition by MTT assay; format: functional, cell-based; details: MCF7, light or radiation study
NCI-H460 [14] = test: Induction of cell death in human NCI-H460 cells assessed as membrane blebbing at 1 uM preincubated for 30 mins followed by light irradiation for 15 to 30 mins by Hoechst 33342 staining based confocal microscopic analysis; format: functional; details: time 45-60 min
HEK-293T [15] = test: Induction of apoptosis in HEK293T cells assessed as dye bleaching irradiated with visible light by Hoechst 33342 staining based confocal microscopic analysis; format: toxicity, cell-based; details: human
MCF7 [16] = test: Antiproliferative activity against human MCF7 cells assessed as inhibition of cell growth incubated for 72 hrs under dark condition by MTT assay; format: functional, cell-based; details: MCF7, 72 h
HCT-116 [17] = test: Induction of ROS generation in human HCT-116 cells at 5 uM incubated for 1 hrs under dark condition by DCFH-DA staining based fluorescence analysis; format: functional, cell-based
[18] = Cytotoxicity against HEK293T cells assessed as inhibition of cell growth incubated for 72 hrs under photoirradiation with 6 cool white lamps for 15 mins at 4,28 and 52 hrs after compound addition by MTT assay; format: toxicity, cell-based, HEK-293T; details: human
NCI-H460 [19] = test: Antiproliferative activity against human NCI-H460 cells assessed as inhibition of cell growth incubated for 72 hrs under dark condition by MTT assay; format: functional, cell-based; details: NCI-H460, 72 h
[20] = Drug localization in endoplasmic reticulum of human NCI-H460 cells at 10 uM incubated for 30 mins by Hoechst 33342 staining based confocal microscopic analysis; format: ADME, subcellular; details: nci-h460, 0.5 h
HCT-116 [21] = test: Antiproliferative activity against human HCT-116 cells assessed as inhibition of cell growth incubated for 72 hrs under dark condition by MTT assay; format: functional, cell-based; details: HCT-116, 72 h
[22] = Emission property of compound in CH3CN assessed as maximal wavelength by […]; format: physicochemical
[23] = Drug localization in lipid droplets of human NCI-H460 cells at 10 uM incubated for 30 mins by Hoechst 33342 staining based confocal microscopic analysis; format: ADME, subcellular, Lipid droplet; details: nci-h460, 0.5 h
HCT-116 [24] = test: Induction of ROS generation in human HCT-116 cells assessed as increase in oxidative stress at 5 uM preincubated with compound for 1 hrs followed by photoirradiation with 6 cool white lamps by DCFH-DA staining based fluorescence analysis; format: functional, cell-based
NCI-H460 [25] = test: Induction of cell death in human NCI-H460 cells assessed as cell shrinkage at 1 uM preincubated for 30 mins followed by light irradiation for 15 to 30 mins by Hoechst 33342 staining based confocal microscopic analysis; format: functional; details: time 45-60 min
[26] = Drug localization in nuclear membrane of human NCI-H460 cells at 10 uM incubated for 30 mins by Hoechst 33342 staining based confocal microscopic analysis; format: ADME, cell membranes; details: nci-h460, 0.5 h
[27] = Absorption property of compound in CH3CN assessed as maximal molar absorption coefficient by UV-vis spectrophotometer; format: physicochemical
NCI-H460 [28] = test: Antiproliferative activity against human NCI-H460 cells assessed as inhibition of cell growth incubated for 72 hrs under photoirradiation with 6 cool white lamps for 15 mins at 4,28 and 52 hrs after compound addition by MTT assay; format: functional, cell-based; details: NCI-H460, light or radiation study
[29] = Fluorescence property of compound in CH3OH assessed as fluorescence quantum yield; format: physicochemical

IC50 (HCT-116 [1]): 170 nM
Activity [4]: 0.32
Drug uptake [5]: Active
Drug uptake [7]: Active
Drug uptake [8]: Active
Activity [11]: 505 nm
IC50 (MCF7 [13]): 150 nM
IC50 (MCF7 [16]): > 100000 nM
IC50 (NCI-H460 [19]): > 100000 nM
Drug uptake [20]: Active
IC50 (HCT-116 [21]): > 100000 nM
Activity [22]: 517 nm
Drug uptake [23]: Active
Drug uptake [26]: Active
Activity [27]: 88894 M⁻¹ cm⁻¹
IC50 (NCI-H460 [28]): 170 nM
SMILES: CC1=CC(C)=[N+]2C1=C(CO)c1c(C)cc(C)n1[B-]2(C)C
Activity (HEK-293T [2]): Toxic
Activity (NCI-H460 [3]): Active
IC50 at 72 h [6]: 300 nM
IC50 at 72 h [9]: 68000 nM
Activity (NCI-H460 [10]): Active
IC50 at 72 h [12]: 38000 nM
Activity (NCI-H460 [14]): Active
Activity (HEK-293T [15]): Toxic
Activity (HCT-116 [17]): inactive
IC50 at 72 h [18]: 300 nM
Activity (HCT-116 [24]): Active
Activity (NCI-H460 [25]): Active

Activity [29]: 0.66
SMILES: CCN(CC)c1ccc2c(-c3ccccc3C(=O)O)c3ccc(=[N+](CC)CC)cc-3oc2c1.[Cl-] [RHODAMINE]
